From ChEMBL document CHEMBL4765252, “Design, synthesis, and biological evaluation of novel 4H-chromen-4-one derivatives as antituberculosis agents against multidrug-resistant tuberculosis” (Eur J Med Chem, 2020)
Values after ≈ are worked out from the molar mass of the structure shown.

Assays:
Format in all cases: functional
[1] = system: Mycobacterium tuberculosis; test: Antitubercular activity against isoniazid, rifampicin, fluoroquinolones-resistant Mycobacterium tuberculosis assessed as inhibition of bacterial growth incubated for 6 days by MABA assay; details: 144 h, time 6 day
[2] = system: Mycobacterium tuberculosis; test: Antitubercular activity against INH, SM, RFP, EMB, RBT, PAS, OLFX-resistant Mycobacterium tuberculosis 13946 assessed as inhibition of bacterial growth
[3] = system: Mycobacterium tuberculosis; test: Antitubercular activity against INH, SM, RFP, EMB, PAS, Prothionamide 1321, Capreomycin-resistant Mycobacterium tuberculosis 14862 assessed as inhibition of bacterial growth

Row | SMILES | MIC [1] [µM] | MIC [2] [µg/mL] | MIC [3] [µg/mL]
1 | CCOC(=O)c1c(NC(=O)c2c(F)c(F)c(F)c(F)c2F)sc2c1CCN(CC)C2 | 0.2 (≈ 0.0897 µg/mL) | – | –
2 | O=c1cc(-c2ccc(O)cc2)oc2ccc(O)c(CN3CCCC3)c12 | – | 3.81 (≈ 11.3 µM) | 3.82 (≈ 11.3 µM)
3 | O=c1cc(-c2ccc(O)cc2)oc2ccc(O)c(CN3CCC3)c12 | – | 1.76 (≈ 5.43 µM) | 1.64 (≈ 5.08 µM)
4 | NNC(=O)c1ccncc1 [ISONIAZID] | – | 2.38 (≈ 17.3 µM) | > 10
5 | CO[C@H]1/C=C/O[C@@]2(C)Oc3c(C)c(O)c4c(O)c(c(/C=N/N5CCN(C)CC5)c(O)c4c3C2=O)NC(=O)/C(C)=C\C=C\[C@H](C)[C@H](O)[C@@H](C)[C@@H](O)[C@@H](C)[C@H](OC(C)=O)[C@@H]1C [RIFAMPIN] | – | > 10 | > 10
